These results are taken from patent publication US20180141913A1 (EISAI R & D MANAGEMENT CO., LTD., priority 2016, published 2018).

For test [1], the system named is MCF7-WT cells (MCF7 ER-alpha wildtype). Put plainly: In vitro proliferation (viability) assay, MCF7-WT cells. The format is cell-based. Particulars: Homo sapiens, MCF7; CellTiter-Glo, day 6 vs day 0; average ± standard deviation; free base and/or salt forms; read-out: MCF7 WT GI50. How it is done: (§1) MCF7 BUS cells (Coser, et al., (2003) PNAS 100(24): 13994-13999) were maintained in Dulbecco's Modified Eagle Medium supplemented with 10% FBS, 4 mM L-glutamine and 1× non-essential amino acids. Lenti-X 293T cells (Clontech, Cat #632180) were routinely cultured in Dulbecco's Modified Eagle Medium supplemented with 10% FBS.
(§2) The QuikChange II XL Site-Directed Mutagenesis Kit (Agilent Technologies, Cat #200523) was used to generate Y537S, Y537C, Y537N and D538G mutations within the ERα exon 8. Wild-type ESR1 cDNA (GeneCopoeia Inc., Cat# GC-A0322, accession no. NM 000125) was used as a template with the following mutagenesis primers (where the underlined nucleotides represent site mutations); Y537S: F-AAGAACGTGGTGCCCCTCTCTGACCTGCTGCTGGAGATG (SEQ ID NO: 1), R-CATCTCCAGCAGCAGGTCAGAGAGGGGCACCACGTTCTT (SEQ ID NO: 2); Y537N: F-AAGAACGTGGTGCCCCTCAATGACCTGCTGCTGGAGATG (SEQ ID NO: 3), R-CATCTCCAGCAGCAGGTCATTGAGGGGCACCACGTTCTT (SEQ ID NO: 4); Y537C: F-AAGAACGTGGTGCCCCTCTGTGACCTGCTGCTGGAGATG (SEQ ID NO: 5), R-CATCTCCAGCAGCAGGTCACAGAGGGGCACCACGTTCTT (SEQ ID NO: 6); D538G: F-AACGTGGTGCCCCTCTATGGCCTGCTGCTGGAGATGCTG (SEQ ID NO: 7), R-CAGCATCTCCAGCAGCAGGCCATAGAGGGGCACCACGTT (SEQ ID NO: 8). WT and mutant ESR1 cDNAs were cloned into the designation lentiviral vector pLenti6.3/V5-Dest (Invitrogen, Cat #V533-06). To make lentivirus, DNAs (WT and mutant ESR1) were co-transfected with packaging plasmids into Lenti-X 293T cells using TransIT (Mirus, Cat #MIR 2700). 48 h post-transfection, virus containing media was filtered and added to MCF7 cells in the presence of 8 µg/ml polybrene overnight. Two days following infection, cells were placed under selection with 10 µg/ml blasticidin for 2 weeks for stable expression.
(§3) MCF7-WT and -Y537S cells were seeded at 1500 cells/well in black-walled 96-well plates (assay plates, Costar, Cat #3904). In parallel, cells were also seeded in a separate 96-well plate (8 wells/cell line, control plate) for which a CTG (CellTiter-Glo® Luminescent Viability Assay, Promega, Cat #G7572) was measured the following day (day 0 reading). The day 0 reading was used for the GI50 calculation at the termination of the experiment. The day following seeding, compounds were added to assay plates. Briefly, a 1:4 serial dilution was prepared in DMSO at 200× final concentration for a total of 10 concentrations (9 dilutions containing compound and one is DMSO only). Serially diluted compounds were pipetted into medium to prepare a compound-medium mix at 10× final concentration. 10 μl of compound-medium mix was added to MCF7-WT and -Y537S cells at 3 wells/concentration (triplicate for each concentration). On day 3, media/compound was removed and replaced with fresh media/compound as described above. On day 6, CTG was measured and compared to day 0 readings from control plate to assess GI50.
(Cellular ATP, detected with luciferase, serves as a proxy for viable cell number.)

In test [2] the test system is MCF7-Y537S cells (MCF7 ER-alpha Y537S mutant). Description: In vitro proliferation (viability) assay, MCF7-Y537S cells. The format is cell-based. The conditions noted are these: Homo sapiens, MCF7; CellTiter-Glo, day 6 vs day 0; average ± standard deviation; free base and/or salt forms; read-out: MCF7 Y537S GI50. Here is the method:
as §1, §2, §3

By GI50 is commonly meant the concentration at which growth is held to half of that of the control. As to `CNC(=O)/C=C/CNCCOc1ccc(/C(=C(/CC(F)(F)F)c2ccc(F)cc2Cl)c2ccc3[nH]nc(F)c3c2)cc1` [Compound 47, (E)-4-((2-(4-((E)-2-(2-chloro-4-fluorophenyl)-4,4,4-trifluoro-1-(3-fluoro-1H-indazol-5-yl)but-1-en-1-yl)phenoxy)ethyl)amino)-N-methylbut-2-enamide], the GI50 in test [1] was 0.64 ± 0.4 nM; in test [2], 7.25 ± 8.77 nM.
Take `CC/C(=C(/c1ccc(OCCNC/C=C/C(=O)NC)cc1)c1ccc2[nH]nc(F)c2c1)c1ccc(F)cc1Cl` [Compound 48, (E)-4-((2-(4-((E)-2-(2-chloro-4-fluorophenyl)-1-(3-fluoro-1H-indazol-5-yl)but-1-en-1-yl)phenoxy)ethyl)amino)-N-methylbut-2-enamide]: the GI50 in test [1] worked out at 0.8 ± 0.14 nM; in test [2] it was 8.25 ± 2.6 nM.
On the same counts, the results for `CC/C(=C(/c1ccc(OCCNC/C=C/C(=O)NC)nc1)c1ccc2[nH]nc(C)c2c1)c1ccccc1` [Compound 49, (E)-N-methyl-4-((2-((5-((Z)-1-(3-methyl-1H-indazol-5-yl)-2-phenylbut-1-en-1-yl)pyridin-2-yl)oxy)ethyl)amino)but-2-enamide] are 173 ± 51.7 nM and 2420 nM.
In the case of `CC/C(=C(/c1ccc(OCCNC/C=C/C(=O)NC)cc1)c1ccc2[nH]ncc2c1)c1ccccc1` [Compound 50, (E)-4-((2-(4-((E)-1-(1H-indazol-5-yl)-2-phenylbut-1-en-1-yl)phenoxy)ethyl)amino)-N-methylbut-2-enamide], the GI50 in test [1] is 4 ± 1.16 nM; in test [2], 98.5 ± 81.5 nM.
On the same counts, the results for `CC/C(=C(/c1ccc(OCCNCCCC(=O)NC)cc1)c1ccc2[nH]ncc2c1)c1ccccc1` [Compound 51, (E)-4-((2-(4-(1-(1H-indazol-5-yl)-2-phenylbut-1-en-1-yl)phenoxy)ethyl)amino)-N-methylbutanamide] are 9.82 ± 1.92 nM and 190 ± 50.1 nM.
On the same counts, the results for `O=C(/C=C/CNCCOc1ccc(/C(=C(/CC(F)(F)F)c2ccccc2)c2ccc3[nH]nc(F)c3c2)cc1)N1CCCCC1` [Compound 52, (E)-1-(piperidin-1-yl)-4-((2-(4-((E)-4,4,4-trifluoro-1-(3-fluoro-1H-indazol-5-yl)-2-phenylbut-1-en-1-yl)phenoxy)ethyl)amino)but-2-en-1-one] are 1.2 nM and 9.3 nM.
Regarding `O=C1NCCC1CCNCCOc1ccc(/C(=C(/CC(F)(F)F)c2ccccc2)c2ccc3[nH]nc(F)c3c2)cn1` (centres unmarked) [Compound 53, (Z)-3-(2-((2-((5-(4,4,4-trifluoro-1-(3-fluoro-1H-indazol-5-yl)-2-phenylbut-1-en-1-yl)pyridin-2-yl)oxy)ethyl)amino)ethyl)pyrrolidin-2-one], the GI50 in test [1] is 0.3 nM; in test [2], 1.8 nM.
As for `CNC(=O)/C=C/CNCCOc1ccc(/C(=C(/CC(F)(F)F)c2ccccc2)c2ccc3[nH]nc(F)c3c2)nn1` [Compound 54, (E)-N-methyl-4-((2-((6-((Z)-4,4,4-trifluoro-1-(3-fluoro-1H-indazol-5-yl)-2-phenylbut-1-en-1-yl)pyridazin-3-yl)oxy)ethyl)amino)but-2-enamide], the figures for the concentration for 50% growth inhibition (GI50) in test [1] and in test [2] were 892 ± 528 nM and 7690 nM, respectively.
Turning to `CNC(=O)/C=C/CNCCOc1ccc(/C(=C(/CC(F)(F)F)c2ccc(F)cc2Cl)c2ccc3[nH]ncc3c2)cn1` [Compound 58, (E)-4-((2-((5-((Z)-2-(2-chloro-4-fluorophenyl)-4,4,4-trifluoro-4,4,4-trifluoro-1-(1H-indazol-5-yl)but-1-en-1-yl)pyridin-2-yl)oxy)ethyl)amino)-N-methylbut-2-enamide], the GI50 in test [1] was 0.33 ± 0.12 nM; in test [2] it was 3.97 ± 2.25 nM.
On the same counts, the results for `CC/C(=C(/c1ccc(OCCNCCCC(=O)NC)nc1)c1ccc2[nH]ncc2c1)c1ccccc1` [Compound 62, (Z)-4-((2-((5-(1-(1H-indazol-5-yl)-2-phenylbut-1-en-1-yl)pyridin-2-yl)oxy)ethyl)amino)-N-methylbutanamide] are 3.31 ± 0.43 nM and 14.5 ± 4.32 nM.
The corresponding values for `CNC(=O)/C=C/CNCCOc1ccc(/C(=C(\c2ccccc2)C2CC2)c2ccc3[nH]nc(F)c3c2)cc1` [Compound 63, (E)-4-((2-(4-((E)-2-cyclopropyl-1-(3-fluoro-1H-indazol-5-yl)-2-phenylvinyl)phenoxy)ethyl)amino)-N-methylbut-2-enamide] are 17.9 ± 8.66 nM and 117 ± 11.6 nM.
As to `CNC(=O)/C=C/CNCCOc1ccc(/C(=C(/CCO)c2ccccc2)c2ccc3[nH]nc(F)c3c2)cc1` [Compound 64, (E)-4-((2-(4-((E)-1-(3-fluoro-1H-indazol-5-yl)-4-hydroxy-2-phenylbut-1-en-1-yl)phenoxy)ethyl)amino)-N-methylbut-2-enamide], the values for the GI50 in test [1] and in test [2] were 153 ± 27.4 nM and 673 ± 167 nM, respectively.
The corresponding values for `CNC(=O)/C=C/CNCCOc1ccc(/C(=C(/CCOC)c2ccccc2)c2ccc3[nH]nc(F)c3c2)cc1` [Compound 65, (E)-4-((2-(4-((E)-1-(3-fluoro-1H-indazol-5-yl)-4-methoxy-2-phenylbut-1-en-1-yl)phenoxy)ethyl)amino)-N-methylbut-2-enamide] are 58.3 ± 48.1 nM and 310 ± 139 nM.
`CNC(=O)/C=C/CNCCOc1ccc(/C(=C(/CCCl)c2ccccc2)c2ccc3[nH]nc(F)c3c2)cc1` [Compound 66, (E)-4-((2-(4-((E)-4-chloro-1-(3-fluoro-1H-indazol-5-yl)-2-phenylbut-1-en-1-yl)phenoxy)ethyl)amino)-N-methylbut-2-enamide]: the GI50 in test [1] is 437 ± 55.2 nM; in test [2], greater than 10000 nM.
The corresponding values for `CCC/C(=C(/c1ccc(OCCNC/C=C/C(=O)NC)cc1)c1ccc2[nH]nc(F)c2c1)c1ccccc1` [Compound 67, (E)-4-((2-(4-((E)-1-(3-fluoro-1H-indazol-5-yl)-2-phenylpent-1-en-1-yl)phenoxy)ethyl)amino)-N-methylbut-2-enamide] are 5.38 ± 0.66 nM and 87.7 ± 55 nM.
`CNC(=O)/C=C/CNCCOc1ccc(/C(=C(\c2ccccc2)C(C)C)c2ccc3[nH]nc(F)c3c2)cc1` [Compound 68, (E)-4-((2-(4-((E)-1-(3-fluoro-1H-indazol-5-yl)-3-methyl-2-phenylbut-1-en-1-yl)phenoxy)ethyl)amino)-N-methylbut-2-enamide]: the GI50 in test [1] was 22 ± 2.66 nM; in test [2], 101 ± 53 nM.
On the same counts, the results for `CNC(=O)/C=C/CNCCOc1ccc(/C(=C/CC(F)(F)F)c2ccc3[nH]nc(F)c3c2)nn1` [Compound 69, (E)-N-methyl-4-((2-((6-((E)-4,4,4-trifluoro-1-(3-fluoro-1H-indazol-5-yl)but-1-en-1-yl)pyridazin-3-yl)oxy)ethyl)amino)but-2-enamide] are 8080 nM and 9400 nM.
On the same counts, the results for `O=C1CCCN1CCOc1ccc(/C(=C(/CC(F)(F)F)c2ccccc2)c2ccc3[nH]nc(F)c3c2)cc1` [Compound 70, (E)-1-(2-(4-(4,4,4-trifluoro-1-(3-fluoro-1H-indazol-5-yl)-2-phenylbut-1-en-1-yl)phenoxy)ethyl)pyrrolidin-2-one] are 0.95 ± 0.25 nM and 6.18 ± 2.51 nM.
Consider `CNC(=O)CCCNCCOc1ccc(/C(=C(/CC(F)(F)F)c2ccccc2)c2ccc3[nH]nc(F)c3c2)cn1` [Compound 71, (Z)—N-methyl-4-((2-((5-(4,4,4-trifluoro-1-(3-fluoro-1H-indazol-5-yl)-2-phenylbut-1-en-1-yl)pyridin-2-yl)oxy)ethyl)amino)butanamide], for which the GI50 in test [1] was 0.62 nM; in test [2], 5.31 nM.
